The values below are quoted from earlier work in patent EP4585059A1, “EFFERVESCENT POUCHED PRODUCT” (Nicoventures Trading Limited, priority 2024, dated 2025).

For data set [1] the following is noted: Values obtained from PubChem or calculated.
The conditions of data set [2]: water / aqueous environment (e.g., saliva).

Consider `CC(C)[C@@H]1CC[C@@H](C)C[C@H]1OC(=O)CCC(=O)O` [monomenthyl succinate], for which the “log(P)*” value in data set [1] is recorded as 3.

As to `COC(=O)/C=C/C(C)=C\C=C\C(C)=C\C=C\C=C(C)\C=C\C=C(C)\C=C\C(=O)O` [bixin, (2E,4E,6E,8E,10E,12E,14E,16Z,18E)-20-methoxy-4,8,13,17-tetramethyl-20-oxoicosa-2,4,6,8,10,12,14,16,18-nonaenoic acid], in data set [2], the solubility in water entry was “insoluble in water”.

With `C=C(C)[C@@H]1CCC(C)=C[C@H]1c1c(O)cc(CCCCC)cc1O` [CBD, cannabidiol], in data set [2], the solubility in water result was “insoluble”.

`CC(/C=C/C=C(C)/C=C/C(=O)O)=C\C=C\C=C(C)\C=C\C=C(C)\C=C\C(=O)O` (stereo in doubt) [norbixin, (2E,4E,6E,8E,10E,12E,14E,16E,18E)-4,8,13,17-tetramethylicosa-2,4,6,8,10,12,14,16,18-nonaenedioic acid]: the solubility in water result in data set [2] is recorded as “water-soluble”.

On to isopropyl benzoic acid, for which, in data set [1], the “log(P)*” value is recorded as 3.5.

Turning to ethyl benzoic acid, in data set [1], the “log(P)*” value is 2.9.
